Where “and” joins values, the source holds several entries; their conditions need not be identical. Equal entries are not always repeated. Inconclusive results and toxic doses are left out.
Tested on: P388 leukemia ip, CD2F1 mice, survival T/C
Assay: NCI In Vivo Anticancer Drug Screen. Data for tumor model P388 Leukemia (intraperitoneal) in CD2F1 (CDF1) mice
Details: endpoint: median survival time, higher = longer survival
In short: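 Mice carrying the transplanted tumor received test compound or vehicle. Survival was recorded in each group, and the value is the treated-group measurement divided by that of the vehicle-treated control group.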

[1] = dose: 50.0 mg/kg/injection, schedule: Q01DX005 (ip), vehicle: Klucel (hydroxypropylcellulose) (HPC)
[2] = dose: 50.0 mg/kg/injection, schedule: Q01DX005 (ip), vehicle: saline with Tween-80
[3] = dose: 100.0 mg/kg/injection, schedule: Q01DX005 (ip), vehicle: saline with Tween-80
[4] = dose: 200.0 mg/kg/injection, schedule: Q01DX005 (ip), vehicle: saline with Tween-80
[5] = dose: 400.0 mg/kg/injection, schedule: Q04DX003 (ip), vehicle: saline
[6] = dose: 50.0 mg/kg/injection, schedule: Q01DX009 (ip), vehicle: Klucel (hydroxypropylcellulose) (HPC)
[7] = dose: 100.0 mg/kg/injection, schedule: Q01DX009 (ip), vehicle: Klucel (hydroxypropylcellulose) (HPC)
[8] = dose: 200.0 mg/kg/injection, schedule: Q01DX009 (ip), vehicle: Klucel (hydroxypropylcellulose) (HPC)
[9] = dose: 100.0 mg/kg/injection, schedule: Q01DX005 (ip), vehicle: Klucel (hydroxypropylcellulose) (HPC)
[10] = dose: 25.0 mg/kg/injection, schedule: Q01DX009 (ip), vehicle: saline with Tween-80
[11] = dose: 12.5 mg/kg/injection, schedule: Q01DX005 (ip), vehicle: saline with Tween-80
[12] = dose: 25.0 mg/kg/injection, schedule: Q01DX005 (ip), vehicle: saline with Tween-80
[13] = dose: 50.0 mg/kg/injection, schedule: Q01DX009 (ip), vehicle: saline with Tween-80
[14] = dose: 100.0 mg/kg/injection, schedule: Q01DX009 (ip), vehicle: saline with Tween-80

O=S(=O)(c1cccc(N=C=S)c1)c1cccc(N=C=S)c1
T/C (dose: 6.25 mg/kg/injection, schedule: Q01DX005 (ip), vehicle: Klucel (hydroxypropylcellulose) (HPC)): 123 % of control
T/C (dose: 12.5 mg/kg/injection, schedule: Q01DX005 (ip), vehicle: Klucel (hydroxypropylcellulose) (HPC)): 117 % of control and 123 % of control
T/C (dose: 25.0 mg/kg/injection, schedule: Q01DX005 (ip), vehicle: Klucel (hydroxypropylcellulose) (HPC)): 123 % of control
T/C [1]: 103 % of control

O=C(CCC(=O)ON1C(=O)CCC1=O)OCCOC(=O)CCC(=O)ON1C(=O)CCC1=O
T/C [2]: 116 % of control
T/C [3]: 114 % of control
T/C [4]: 98 % of control

Cn1c(=O)c(CCCC(=O)O)nc2ccccc21
T/C (dose: 100.0 mg/kg/injection, schedule: Q04DX002 (ip), vehicle: saline with Tween-80): 97 % of control
T/C (dose: 200.0 mg/kg/injection, schedule: Q04DX002 (ip), vehicle: saline with Tween-80): 102 % of control
T/C (dose: 400.0 mg/kg/injection, schedule: Q04DX002 (ip), vehicle: saline with Tween-80): 107 % of control

O=C(O)COCC(F)(F)C(F)(F)C(F)(F)COCC(=O)O
T/C (dose: 176.0 mg/kg/injection, schedule: Q04DX003 (ip), vehicle: saline): 100 % of control
T/C (dose: 264.0 mg/kg/injection, schedule: Q04DX003 (ip), vehicle: saline): 91 % of control
T/C [5]: 100 % of control

CC(C(=O)NN)C(C)(C)C (configuration not stated)
T/C (dose: 100.0 mg/kg/injection, schedule: Q01DX001 (ip), vehicle: saline with Tween-80): 96 % of control
T/C (dose: 200.0 mg/kg/injection, schedule: Q01DX001 (ip), vehicle: saline with Tween-80): 99 % of control
T/C (dose: 400.0 mg/kg/injection, schedule: Q01DX001 (ip), vehicle: saline with Tween-80): 99 % of control

Cc1nc2c(Br)cc(Br)cc2c(=O)n1CC(=O)NNC(N)=S
T/C [6]: 95 % of control
T/C [7]: 104 % of control
T/C [8]: 101 % of control

Cc1nn(C)pc1P(C)(=S)n1nc(N(C)C)np1 (configuration not stated)
T/C [1]: 98 % of control
T/C [9]: 103 % of control

CN(C)CCOC1=Nc2ccccc2O/C1=C/c1ccccc1
T/C [6]: 100 % of control
T/C [7]: 111 % of control

COc1ccc(C(O)C2CC(=O)NN=C2C)cc1OC (configuration not stated)
T/C (dose: 60.0 mg/kg/injection, schedule: Q01DX005 (ip), vehicle: saline with Tween-80): 100 % of control
T/C (dose: 120.0 mg/kg/injection, schedule: Q01DX005 (ip), vehicle: saline with Tween-80): 100 % of control
T/C (dose: 240.0 mg/kg/injection, schedule: Q01DX005 (ip), vehicle: saline with Tween-80): 99 % of control

CCCCOCN(COCCCC)C(C)Cc1ccccc1 (configuration not stated)
T/C [10]: 120 % of control

CCCCN(CCCC)C(C)C(=O)c1ccc2cc(Br)c3ccccc3c2c1 (configuration not stated)
T/C [11]: 110 % of control
T/C [12]: 101 % of control
T/C [2]: 99 % of control and 100 % of control
T/C [3]: 107 % of control
T/C [4]: 119 % of control

COc1ccc2sc3c(C)ccc(NCCCC4CCCN5CCCCC45)c3c(=O)c2c1 (configuration not stated)
T/C (dose: 6.25 mg/kg/injection, schedule: Q01DX005 (ip), vehicle: saline with Tween-80): 94 % of control
T/C [11]: 92 % of control
T/C [12]: 89 % of control

O=C1CSCC(=O)OCCOCCOCCO1
T/C (dose: 100.0 mg/kg/injection, schedule: Q04DX003 (ip), vehicle: suspension in saline): 104 % of control
T/C (dose: 200.0 mg/kg/injection, schedule: Q04DX003 (ip), vehicle: suspension in saline): 101 % of control
T/C (dose: 400.0 mg/kg/injection, schedule: Q04DX003 (ip), vehicle: suspension in saline): 101 % of control

OCCOCCSc1ccccn1
T/C (dose: 50.0 mg/kg/injection, schedule: Q01DX005 (ip), vehicle: saline): 109 % of control
T/C (dose: 100.0 mg/kg/injection, schedule: Q01DX005 (ip), vehicle: saline): 111 % of control
T/C (dose: 200.0 mg/kg/injection, schedule: Q01DX005 (ip), vehicle: saline): 111 % of control

O=C(NS(=O)(=O)Cl)Oc1ccc(Cl)cc1C(=O)Oc1ccc(Cl)cc1
T/C (dose: 60.0 mg/kg/injection, schedule: Q01DX005 (ip), vehicle: Klucel (hydroxypropylcellulose) (HPC)): 90 % of control
T/C (dose: 120.0 mg/kg/injection, schedule: Q01DX005 (ip), vehicle: Klucel (hydroxypropylcellulose) (HPC)): 93 % of control
T/C (dose: 240.0 mg/kg/injection, schedule: Q01DX005 (ip), vehicle: Klucel (hydroxypropylcellulose) (HPC)): 86 % of control

COC(=O)C(C#N)=C(SC)SC
T/C (dose: 12.5 mg/kg/injection, schedule: Q01DX009 (ip), vehicle: saline with Tween-80): 112 % of control
T/C [10]: 116 % of control
T/C [13]: 103 % of control and 91 % of control

CCn1c(=O)[nH]c(=O)c2conc21
T/C [10]: 95 % of control
T/C [13]: 104 % of control
T/C [14]: 96 % of control

CN(C)c1ccc(C2(c3ccccc3)NNC(=O)c3ccccc32)cc1 (configuration not stated)
T/C [11]: 92 % of control
T/C [12]: 88 % of control
T/C [2]: 88 % of control
T/C [4]: 86 % of control

CCCCc1ccc(-n2c(C)c(COC(=O)NC)c(COC(=O)NC)c2C)cc1
T/C (dose: 12.5 mg/kg/injection, schedule: Q01DX009 (ip), vehicle: Klucel (hydroxypropylcellulose) (HPC)): 172 % of control and 190 % of control
T/C (dose: 25.0 mg/kg/injection, schedule: Q01DX009 (ip), vehicle: Klucel (hydroxypropylcellulose) (HPC)): 152 % of control and 190 % of control

ClCc1nnc(-c2ccccc2)o1
T/C [6]: 100 % of control
T/C [7]: 95 % of control

CNc1ccc([N+](=O)[O-])cc1/C([O-])=C\[S+](C)(C)=O
T/C (dose: 100.0 mg/kg/injection, schedule: Q04DX003 (ip), vehicle: saline): 97 % of control
T/C (dose: 200.0 mg/kg/injection, schedule: Q04DX003 (ip), vehicle: saline): 106 % of control
T/C [5]: 97 % of control

COc1ccc(NC(=O)c2cc3c(cc2Br)OCO3)cc1
T/C (dose: 12.5 mg/kg/injection, schedule: Q01DX009 (ip), vehicle: other): 102 % of control
T/C (dose: 25.0 mg/kg/injection, schedule: Q01DX009 (ip), vehicle: other): 96 % of control
T/C (dose: 50.0 mg/kg/injection, schedule: Q01DX009 (ip), vehicle: other): 100 % of control
T/C (dose: 100.0 mg/kg/injection, schedule: Q01DX009 (ip), vehicle: other): 93 % of control
T/C (dose: 200.0 mg/kg/injection, schedule: Q01DX009 (ip), vehicle: other): 99 % of control
T/C (dose: 400.0 mg/kg/injection, schedule: Q01DX009 (ip), vehicle: other): 89 % of control

CN(Cc1ccco1)NC(=O)C(=O)NCc1ccco1
T/C [2]: 97 % of control
T/C [4]: 88 % of control

CCN(CC)CCOC(=O)C(C1CCCCC1)C1(O)CCCCCC1 (configuration not stated)
T/C [2]: 104 % of control
T/C [3]: 102 % of control
T/C [4]: 95 % of control

COc1c2c(c(C)c3ccc4ccccc4c13)CCN=C2
T/C [1]: 103 % of control
T/C [9]: 102 % of control
T/C (dose: 200.0 mg/kg/injection, schedule: Q01DX005 (ip), vehicle: Klucel (hydroxypropylcellulose) (HPC)): 113 % of control

CC(O)CCOC(C[N+](=O)[O-])C(Cl)(Cl)Cl (configuration not stated)
T/C [13]: 101 % of control and 104 % of control
T/C [14]: 117 % of control
T/C (dose: 200.0 mg/kg/injection, schedule: Q01DX009 (ip), vehicle: saline with Tween-80): 102 % of control and 120 % of control

c1ccc2c(NCCCCCNc3c4ccccc4nc4ccccc34)c3ccccc3nc2c1
T/C (dose: 0.63 mg/kg/injection, schedule: Q01DX009 (ip), vehicle: other): 103 % of control
T/C (dose: 1.25 mg/kg/injection, schedule: Q01DX009 (ip), vehicle: other): 108 % of control
T/C (dose: 2.5 mg/kg/injection, schedule: Q01DX009 (ip), vehicle: other): 100 % of control
T/C (dose: 3.75 mg/kg/injection, schedule: Q01DX009 (ip), vehicle: other): 112 % of control
T/C (dose: 5.0 mg/kg/injection, schedule: Q01DX009 (ip), vehicle: other): 117 % of control
T/C (dose: 10.0 mg/kg/injection, schedule: Q01DX009 (ip), vehicle: other): 122 % of control

COC(=O)COc1cc2c(cc1C(C)c1ccc(OCc3ccccc3)cc1)OCO2 (configuration not stated)
T/C (dose: 50.0 mg/kg/injection, schedule: Q01DX005 (ip), vehicle: distilled water + Tween-80): 89 % of control
T/C (dose: 100.0 mg/kg/injection, schedule: Q01DX005 (ip), vehicle: distilled water + Tween-80): 99 % of control
T/C (dose: 200.0 mg/kg/injection, schedule: Q01DX005 (ip), vehicle: distilled water + Tween-80): 106 % of control and 88 % of control

CNCCNc1ncc([N+](=O)[O-])s1
T/C (dose: 25.0 mg/kg/injection, schedule: Q01DX001 (ip), vehicle: saline): 115 % of control and 118 % of control
T/C (dose: 50.0 mg/kg/injection, schedule: Q01DX001 (ip), vehicle: saline): 122 % of control and 124 % of control

Cc1cc(C2(c3cc(C)c(O)c(C)c3)CC3CCC2C3)cc(C)c1O (configuration not stated)
T/C [6]: 88 % of control
T/C [7]: 97 % of control
T/C [8]: 93 % of control

— PubChem BioAssay AID330 (DTP/NCI, 2004)
